Source: patent US9144556B2, “Composition for promoting lipolysis” (LION CORPORATION, priority 2011, dated 2015)

Tested on: rat mesenteric adipocytes
Experiment: Rate of promoting lipolysis (glycerol quantification in culture supernatant of rat mesenteric adipocytes)
Type: cell-based
Settings: for Rate of promoting lipolysis of the combination compared with the value obtained by adding the rates of the single preparations (synergy): combined preparation versus sum of single preparations at corresponding concentration; for Rate of promoting lipolysis (combined preparation (+ lactoferrin 10 ppm)) / Rate of promoting lipolysis (combined preparation (+ lactoferrin 30 ppm)) / Rate of promoting lipolysis (single preparation): 48 hours, additive free group = 0%; for Rate of promoting lipolysis (single preparation): relative glycerol amount
Method: Promoting the breakdown of the fat by the composition for promoting the lipolysis of the present invention can be confirmed, for example, by conducting Examples. That is, a sample is added to a precursor adipocyte prepared from rat mesenteric tissue, and glycerol is quantified. A commercially available kit such as F-Kit Glycerol (supplied from Roche, product number: 14820) may be used for the quantification. When the amount of obtained glycerol is larger than the amount of glycerol when the sample was not added, it can be confirmed that the lipolysis was promoted.
Two SD rats (male, 10 weeks of age, Japan SLC, Inc.) were used. The rats were euthanized under anesthesia with ether and anatomized, and mesenteric adipose tissue was removed. The obtained tissue was placed in a sterilized petri dish, immersed in ice-cold saline (Otsuka Normal Saline, supplied from Otsuka Pharmaceutical Co., Ltd.) containing 1% antibiotic (Antibiotic-Antimycotic Stabilized, supplied from Sigma, A5955), and washed to remove blood and hairs, particularly lymphocytes (washed several times with different saline until no hair was visible). The tissue was cut using ophthalmic scissors (cut 25 times per 1 g of the tissue), and dispersed by stirring every several minutes in a PBS solution containing 1 mg/mL of collagenase (Collagenase S-1 derived from Actinomycetes, supplied from Nitta Gelatin Inc.) at 37° C. for 40 minutes. Roughly, the tissue from one rat was treated with 20 mL of the collagenase solution.
The tissue suspension was filtrated through a cell strainer with a pore size of 100 μm (REF352360 supplied from BD Falcon). Subsequently, a viscosity of the suspension was reduced by adding 20 mL of DMEM (Dulbecco's Modified Eagle's Medium-high glucose, D5796 supplied from Sigma), and then the suspension was centrifuged at 800 rpm for 10 minutes. An oil layer in an upper layer was removed using an aspirator, and then, the resulting suspension was resuspended and filtrated through a cell strainer with a pore size of 70 μm (REF352350 supplied from BD Falcon). After centrifuging at 800 rpm for 15 minutes, it was confirmed that there was no suspended cell in a supernatant, the presence of a pellet was confirmed, and then the supernatant was removed. The pellet was suspended in 5 mL of DMEM (serum free), the suspension was centrifuged at 800 rpm for 15 minutes, and then the supernatant was removed.
The resulting pellet was gently suspended in 5 mL of a medium for visceral adipocyte differentiation (Visceral Adipocyte Culture Medium, 250 mL, code: VACMR supplied from Primary Cell Co., Ltd.). The suspension was diluted to 10 times, and the number of cells was counted and was 1.015×10^7 cells/mL. 2.54×10^7 cells could be recovered from one rat. The cells suspended in the medium were placed so as to be at 6×10^6 cells/24-wells and 500 μL/well, and their cultivation was started. On the following day, 500 μL of the medium was added, and subsequently the medium was changed every third day. […]. On the 6th day after the start of the cultivation, the medium was changed to a medium containing each sample. A culture supernatant was collected 48 hours after adding the sample, and the cultivation was terminated. It was visually confirmed that there was no cytotoxicity in all of the cultivations.
A concentration of lactoferrin was adjusted to 30 ppm or 10 ppm, and lactoferrin at each concentration was used as the sample for evaluating the effect of lactoferrin alone (Comparative Experimental example 1). Each ingredient other than lactoferrin was used as the sample for evaluating the effect of a single preparation alone as follows. Lactoferrin and each ingredient other than lactoferrin were adjusted to the following concentrations and mixed to use as the sample for evaluating the effect of a combined preparation (Experimental Examples 1 to 9 and Comparative Experimental Examples 2 to 4). […]

[1] = ingredient 10 ppm + lactoferrin 10 ppm
[2] = ingredient 10 ppm + lactoferrin 30 ppm
[3] = ingredient 30 ppm + lactoferrin 10 ppm
[4] = ingredient 30 ppm + lactoferrin 30 ppm

Row | Molecule | Rate of promoting lipolysis of the combination compared with the value obtained by adding the rates of the single preparations (synergy) | Rate of promoting lipolysis (combined preparation (+ lactoferrin 10 ppm)) [1] | Rate of promoting lipolysis (combined preparation (+ lactoferrin 30 ppm)) [2] | Rate of promoting lipolysis (single preparation) (ingredient 10 ppm alone) | Rate of promoting lipolysis (combined preparation (+ lactoferrin 10 ppm)) [3] | Rate of promoting lipolysis (combined preparation (+ lactoferrin 30 ppm)) [4] | Rate of promoting lipolysis (single preparation) (ingredient 30 ppm alone) | Rate of promoting lipolysis (combined preparation (+ lactoferrin 10 ppm)) (ingredient 10 ppm + lactoferrin 10 ppm, listed as raspberry ketone) | Rate of promoting lipolysis (single preparation) (ingredient 10 ppm alone, listed as raspberry ketone)
1 | O=C(O[C@@H]1Cc2c(O)cc(O)cc2O[C@@H]1c1cc(O)c(O)c(O)c1)c1cc(O)c(O)c(O)c1 [Epigallocatechin gallate, epigallocatechin gallate] | No prominently synergistic effect | 11% | 21% | −6% | 13% | 24% | 3% |  | 
2 | CC(=O)CCc1ccc(O)cc1 [Raspberry ketone, 4-(4-hydroxyphenyl)-2-butanone] |  | 22% | 57% | −2% | 34% | 70% | 10% | more excellent effect of promoting the lipolysis than in the case of lactoferrin 10 ppm alone | rather inhibited the lipolysis
3 | Lactoferrin |  |  |  | 12.1% |  |  | 21.3% |  | 
4 | O=C(/C=C/c1ccc(O)c(O)c1)O[C@@H]1C[C@](O)(C(=O)O)C[C@@H](O)[C@H]1O [Chlorogenic acid, chlorogenic acid] | No prominently synergistic effect | 12% | 20% | 3% | 14% | 22% | 5% |  | 
